Earlier results on one molecule are cited in US7713550B2, “Controlled release sodium valproate formulation” (Andrx Corporation, priority 2004, dated 2010).

As a reminder, the solubility is the dissolved amount per volume that the medium holds.

The conditions of the data set: for valproic acid.

As for `CCCC(CCC)C(=O)O` [divalproex sodium], the solubility was 1270 µg/mL.
